Measured values reported in US9623109B2, “Methods of killing cells and use of same in prevention and treatment of cancer” (Yissum Research Development Company of the Hebrew …, priority 2008, dated 2017).

What was measured:
CKI-delta = CKI-delta (Homo sapiens, UniProt P48730); conditions: cited from earlier work
CKI-epsilon = CKI-epsilon (Homo sapiens, UniProt P49674); conditions: cited from earlier work
CKIα KO mice = assay: Sulindac feeding of CKIα knockout mice (gut phenotype, qRT-PCR, Western, IHC, SA-β-gal); format: in vivo, mouse
Protocol: Tamoxifen (Sigma) was dissolved in Corn Oil (Sigma) to a 20 mg/ml concentration. Mice at 2-3 months were injected subcutaneously with 2 mg Tamoxifen per injection, 5-7 injections every other day, over a 10-14 day period. Mice were sacrificed 4-5 days after the last injection. The colon and part of the small intestine were taken for histology, together with the stomach, liver, pancreas, spleen, kidney, heart and lung. Enterocytes (intestinal epithelial cells) were isolated from most of the small intestine. Enterocytes were used for RNA and protein assays.
All tissues were fixated in 4% formaldehyde for 24 hours, paraffin embedded and sectioned at 5 μm for hematoxylin/eosin (H&E) staining and immunohistochemistry. BrdU (Amersham) was injected intraperitonally at 100 μl/10 g body weight, 2 hours prior to sacrifice. The primary antibodies used were goat anti-CKIα (1:100; Santa Cruz), rabbit anti-Cleaved Caspase-3 (1:100; Cell Signaling), rabbit CM5 (anti-mouse p53) (1:400; Novocastra), mouse anti-β-catenin (1:200; BD transduction), mouse anti-BrdU (1:100; NeoMarkers), rabbit anti-Cyclin D1 (1:125; Lab Vision), mouse anti-p21 (1:50; Santa Cruz), mouse anti-γH2AX (Ser139) (1:100; Upstate), mouse anti-IL-8 (1:125; Bender), rabbit anti-Ki67 (1:300; NeoMarkers). The secondary antibodies used for immunohistochemistry were HRP-polymer anti-Rabbit and anti-Goat (Nichirei), HRP-polymer Mouse on Mouse kit (Nichirei), Mach2 anti mouse-HRP polymer (Biocare) and Mouse-Envision Plus (Dako). HRP was visualized with DAB chromogen (Thermo Scientific) and nuclear counterstain was hemotoxylin (BioOptica). The secondary antibody used for immunofluorescence was goat anti mouse Alexa-488 (1:1000; Molecular Probes). The nuclear counterstain used for immunofluorescence was Hoechst (1.5 μg/ml, Molecular Probes).
For enterocyte isolation, ˜⅔ of the small intestine was washed and minced into small pieces in PBS/1 mM DTT. Intestine was separated into single cells in Ca^2+, Mg^2+ free HBSS containing 10 mM HEPES, 5 mM EDTA and 0.5 mM DTT, at 37° C. for 30 minutes with slow agitation. Lysate was mixed vigorously and cell suspension was centrifuged. Cell pellets were frozen in liquid N2 and stored at −80° C. Protein was extracted from cell pellets in cell lysis buffer containing protease and phosphatase inhibitors. Primary antibodies used in Western blotting were goat-anti CKIα (1:100; Santa Cruz), mouse anti-CKIε (1:250; Santa Cruz), mouse anti-β-catenin (1:2500; BD transduction), rabbit anti-Phospho-β-catenin (Thr41/Ser45) (1:750, Cell Signaling), rabbit CM5 (anti-mouse p53) (1:400; Novocastra), mouse anti-human p53 (1:20; DO-1 hybridoma), rabbit anti-Phospho-p53 (Ser15) (1:1000; Cell Signaling), rabbit anti-Cyclin D1 (1:300; Lab Vision), rabbit anti-Cyclin D2 (1:1000; Santa Cruz), rabbit-anti Bax (1:200; Santa Cruz), mouse anti-MdmX (1:1000; Sigma), goat anti-MdmX (1:200; Santa Cruz), mouse anti-GSK3β (1:2500; BD transduction) rabbit anti-Cleaved Caspase-3 (1:1000; Cell Signaling), rabbit anti-PARP (1:1000; Cell Signaling), mouse anti-p21 (1:200; Santa Cruz), mouse anti-E2F1 (1:500, Santa Cruz), mouse anti-γH2AX (Ser139) (1:1000; Upstate), rabbit anti-Phospho-Chk2 (Thr68) (1:1000; Cell Signaling), rabbit anti-Hsp90 (1:5000; Calbiochem). Secondary antibodies used in Western blotting were HRP-conjugated, goat anti-rabbit, goat anti-mouse and rabbit anti-goat (1:10,000; Jackson). ECL (Amersham) was used for HRP detection. […]

[1] = test system: RKO colorectal carcinoma cells; assay: CKIδ/ε or CKIδ shRNA knockdown in RKO colorectal carcinoma cells (DNA damage response); format: cell-based; conditions: CKIδ depletion, human colorectal carcinoma cell line, FIG. 21
Protocol: FIG. 21 is a photograph illustrating the DNA damage response (DDR) upon CKIδ/ε ablation.
For enterocyte isolation, ˜⅔ of the small intestine was washed and minced into small pieces in PBS/1 mM DTT. Intestine was separated into single cells in Ca^2+, Mg^2+ free HBSS containing 10 mM HEPES, 5 mM EDTA and 0.5 mM DTT, at 37° C. for 30 minutes with slow agitation. Lysate was mixed vigorously and cell suspension was centrifuged. Cell pellets were frozen in liquid N2 and stored at −80° C. Protein was extracted from cell pellets in cell lysis buffer containing protease and phosphatase inhibitors. […]
RKO and HCT116 cells were cultured in Dulbecco's modified Eagle's medium, supplemented with 10% fetal calf serum (Sigma). […] CKIα expression levels were determined before each experiment to ensure adequate knockdown. […]

CKI-epsilon, sequence (P49674 whole entry): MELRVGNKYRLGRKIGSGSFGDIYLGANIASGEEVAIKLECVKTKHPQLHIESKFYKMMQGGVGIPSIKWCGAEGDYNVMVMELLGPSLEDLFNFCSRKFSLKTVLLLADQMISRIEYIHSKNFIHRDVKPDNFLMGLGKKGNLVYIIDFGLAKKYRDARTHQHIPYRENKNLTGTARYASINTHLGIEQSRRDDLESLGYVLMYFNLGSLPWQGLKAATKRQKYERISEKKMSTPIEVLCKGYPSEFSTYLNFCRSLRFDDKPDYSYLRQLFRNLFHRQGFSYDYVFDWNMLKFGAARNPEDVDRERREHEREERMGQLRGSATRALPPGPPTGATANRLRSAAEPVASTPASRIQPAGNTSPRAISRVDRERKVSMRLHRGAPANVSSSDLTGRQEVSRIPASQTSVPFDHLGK
CKI-delta, sequence (P48730 whole entry): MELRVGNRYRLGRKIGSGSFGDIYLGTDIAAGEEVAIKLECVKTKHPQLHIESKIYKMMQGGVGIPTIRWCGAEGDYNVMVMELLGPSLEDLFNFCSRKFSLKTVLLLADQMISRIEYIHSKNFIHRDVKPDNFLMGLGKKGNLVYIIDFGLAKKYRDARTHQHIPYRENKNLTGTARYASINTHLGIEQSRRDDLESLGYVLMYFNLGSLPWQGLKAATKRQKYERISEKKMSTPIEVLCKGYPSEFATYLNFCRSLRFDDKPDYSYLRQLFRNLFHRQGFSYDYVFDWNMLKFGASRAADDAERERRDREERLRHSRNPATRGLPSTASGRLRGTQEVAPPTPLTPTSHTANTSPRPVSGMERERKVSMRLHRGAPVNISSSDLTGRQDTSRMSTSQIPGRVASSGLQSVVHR

For `COc1cc(OC)c(C=C2C(O)=Nc3ccccc32)c(OC)c1` [IC261], the “inhibition of CKI-delta” value (CKI-delta) is listed as “specific inhibitor” and the “inhibition of CKI-epsilon” value (CKI-epsilon) is listed as “specific inhibitor”.
In the case of `CC1=C(CC(=O)O)c2cc(F)ccc2/C1=C\c1ccc([S+](C)[O-])cc1` (centres unmarked) [Sulindac], the “cell-non autonomous effects of CKIα deficiency” value (CKIα KO mice; CKIα KO mice, Sulindac in the drinking water, FIG. 14) is reported as “prevents”, the “overall phenotype of the gut tissue: severity of dysplasia” value (CKIα KO mice; CKIα knockout mice fed Sulindac) is reported as “greatly reduced” and the “markers for Wnt activation, inflammation, senescence and cell growth arrest, including CyclinD1, Troy, Cox2, SA-β-gal and p21” value (CKIα KO mice; CKIα knockout mice fed Sulindac for the duration of the experiment) is reported as “significant reduction”. The “p53-independent senescence phenotype (SA β-gal) induced by CKIα deletion” value (CKIα KO mice; intestines of CKIα KO mice treated with Sulindac, FIG. 13) was “reversed” and the “clusters of cells with high grade dysplasia in the villi” value (CKIα KO mice; sulindac fed CKIα KO mice, never found in control mutant mice) was “many clusters of cells were found with high grade dysplasia”.
In the case of “CKIδ shRNA: shRNA sequence for CKIδ alone (SEQ ID NO: 5), from Open Biosystems, cloned in pLKO vector (CCGGCCCATCGAAGTGTTGTGTAAACTCGAGTTTACACAACACTTCGATGGGTTTTT)”, the p53 protein [1] is reported as “induced p53 stabilization”.
